Laboratory results as given in PMC10151334, “Anti-proliferative potential and oxidative reactivity of thermo-oxidative degradation products of stigmasterol and stigmasteryl esters for human intestinal cells” (Scientific Reports, 2023).

How the values were obtained:
[1] = test system: caspase 3/7 activity in CCD 841 CoN cells; assay: Caspase 3/7 activity assay (APO-One Homogeneous); type: cell-based, human; conditions: 40 μg/mL, 24 h
Experimental: CCD 841 CoN cells were grown in black 96-well plates at an initial cell density of 2 × 10^4 cells/cm^2 for 24 h under standard culture conditions. The cell cultures were treated for 24 h with ST, ST-OA, and ST-LA at a 40 μg/mL dose. After treatment, caspase-3/7 activity was determined using the APO-One Homogeneous Caspase-3/7 Assay (Promega Corporation, Wisconsin, USA), which is based on the proteolytic cleavage of C-terminal side of aspartate residue in the DEVD peptide substrate by caspase 3/7 into fluorescent rhodamine 110 (R110). Analysis of caspase 3/7 activity was carried out following the manufacturer's instructions. Briefly, the cells after the treatment were incubated at room temperature with Apo-ONE® Caspase-3/7 Reagent—bifunctional cell lysis/caspase activity buffer combined with the pro-fluorescent caspase-3/7 substrate Z-DEVD-R110. After 4-h incubation, fluorescence was measured at an excitation wavelength of 485 nm and an emission wavelength of 530 nm using a Tecan M200 Infinite microplate reader. Data obtained were normalized to cellular protein content, quantified by BCA assay (Pierce® BCA Protein Assay Kit, Thermo Scientific Inc., USA) according to the manufacturer's protocol.

S. typhimurium TA102 = assay: Bacterial reverse mutation assay (Ames test), strain TA102; conditions: 40 μg/mL, regardless of metabolic activation (+/− S9)
Experimental: (§1) Potential mutagenicity or pro-mutagenicity of non-heated and heated ST, ST-LA, and ST-OA was determined using the bacterial reverse mutation assay (Ames test) with Salmonella enterica subsp. enterica ser. typhimurium tester strains TA98, TA100, and TA102, which were obtained from the Polish Collection of Microorganisms of the Institute of Immunology and Experimental Therapy of the Polish Academy of Sciences in Wroclaw.
(§2) Mutagenicity experiments were performed in the liquid pre-incubation assay, without and with metabolic activation by supplying Aroclor 1254-induced rat liver microsomal fraction (S9, Sigma-Aldrich) with NADP and cofactors for NADPH-supported oxidation, according to the procedure described by Mortelmans and Zeiger[39]. Briefly, reaction mixtures, consisting of 12-h bacterial culture, non-heated and heated compound (ST, ST-LA, ST-OA) at a concentration of 40 μg, 0.2 M phosphate buffer (pH 7.4), and alternatively S9 activating mixture, were pre-incubated at 37 °C for 20 min. […] The mutagen, 2-aminoanthracene (5 μg) (Sigma-Aldrich), was a positive control in pro-mutagenicity experiments. After pre-incubation, the reaction mixtures were added to the top agar supplemented with traces of histidine and biotin and poured onto the plates covered with minimum glucose agar. The cultures were incubated for 48 h at 37 °C, and the number of revertants (His+) colonies was counted manually.
(§3) Compounds with MI ≥ 2 can be recognized as potentially mutagenic.

CCD 841 CoN cells [2] = assay: MultiTox-Fluor Multiplex Cytotoxicity Assay (live and dead cell fluorescence); type: cell-based
Experimental: The normal human diploid CCD 841 CoN cell line (ATCC® CRL-1790™) isolated from colon mucosa was obtained from American Type Culture Collection (ATCC, Manassas, VA, USA). Cells were cultured in Dulbecco’s Modified Eagle’s Medium (DMEM, Sigma-Aldrich) supplemented with fetal bovine serum (FBS; Gibco BRL, Grand Island, NY, USA) to a final concentration of 10% and maintained at 37 °C in a humidified atmosphere with 5% CO2.
In the cytotoxicity experiments, CCD 841 CoN cells were seeded in 96-well plates at an initial density of 2.0 × 10^4 cells/cm^2 and incubated for 24 h. […] Control culture contained the vehicle at the amount corresponding to the sample analyzed.
The Multitox-Fluor Multiplex Cytotoxicity Assay (Promega GmbH, Mannheim, Germany) was applied to determine the relative number of live and dead cells in the CCD 841 CoN cell cultures treated with the analyzed compounds. The assay determined live- and dead-cell protease activities using two fluorogenic peptide substrates, cell-permeant (glycyl-phenylalanyl-amino fluorocoumarin; GF-AFC) and cell-impermeant (bis-alanyl-alanyl-phenylalanyl-rhodamine 110; bis-AAF-R110). After treatment, the cells were incubated with GF-AFC and bis-AAF-R110 substrates for 60 min at 37 °C. The live- and dead-cell proteases produced AFC and R110 products, measured using a Tecan M200 Infinite microplate reader (Tecan Group Ltd., Männedorf, Switzerland) at different excitation (400 nm and 485 nm) and emission (505 nm and 520 nm) spectra. The assay was conducted according to the manufacturer’s instructions.

CCD 841 CoN cells [3] = test system: CCD 841 CoN cells; design: method as in PMID 31883991; conditions: colon mucosa CCD 841 CoN cells, MTT test; cited from earlier work
S. typhimurium TA100 = conditions: 40 μg/mL, without metabolic activation
Experimental: as §1, §2, §3

[4] = Thermo-oxidative treatment at 180 °C for 8 h, degradation of the compound; type: physicochemical; conditions: heated at 180 °C for 8 h under oxygen atmosphere
Experimental: ST, ST-OA, and ST-LA (50 mg each) were placed separately in glass vials and heated at 180 °C for 8 h under an oxygen atmosphere. After thermo-oxidative treatment, the tested compounds were stored at − 20 °C until chemical and biological analyses. The non-heated and heated ST and its esters were analyzed to detect degradation products and oxyderivatives. Analytical methods were described in the article published previously.

S. typhimurium TA98 = assay: Bacterial reverse mutation assay (Ames test), strain TA98; conditions: 40 μg/mL, with microsomal fraction (+ S9)
Experimental: as §1, §2, §3

CCD 841 CoN cells [5] = assay: DNA synthesis, BrdU incorporation (Cell Proliferation ELISA); type: cell-based, human; conditions: 48 h
Experimental: CCD 841 CoN cells were grown in black 96-well plates at an initial cell density of 2 × 10^4 cells/cm^2 for 24 h under standard culture conditions. The cells were treated with ST (2.5, 5, 10, 20, and 40 μg/mL) and its esters ST-OA and ST-LA (10, 20, and 40 μg/mL) for 48 h. DNA synthesis was measured by incorporating thymidine analog 5-bromo-2′-deoxyuridine (BrdU) into newly synthesized DNA using the Cell Proliferation ELISA kit according to the protocol recommended by the manufacturer (Roche Diagnostics GmbH, Mannheim, Germany). Briefly, BrdU was added to the treated cells 24 h before the end of the exposure to the ST, ST-OA, and ST-LA (final BrdU concentration of 10 μM). After treatment, BrdU-labeled DNA was denatured (30 min, 20 °C). Then, BrdU was bonded with a peroxidase-conjugated anti-BrdU antibody (90 min, 20 °C) and reacted with the peroxidase substrate. The absorbance measurement was done with a stop solution (1 M H2SO4) at 450 nm with reference wavelength 690 nm using a Tecan M200 Infinite microplate reader.

CC[C@H](/C=C/[C@@H](C)[C@H]1CC[C@H]2[C@@H]3CC=C4C[C@@H](O)CC[C@]4(C)[C@H]3CC[C@]12C)C(C)C [ST, Stigmasterol]
caspase 3/7 activity [1]: Boosted caspase 3/7 activity
effect on TA102 revertants (S. typhimurium TA102): did not affect the number of TA102 revertants
decrease in the viable cell number (CCD 841 CoN cells [2]; 1 μg/mL, first cytotoxic effects): 10%
reduction in number of viable cells / relative cell viability (CCD 841 CoN cells [2]; 40 μg/mL, 48-h treatment): approximately 80%
concentration at which first cytotoxic effects were observed (CCD 841 CoN cells [2]; 48-h treatment): 1000 ng/mL
half-maximal effective concentration (EC50), 50% decrease in cell viability (CCD 841 CoN cells [3]): 2.95 µg/mL
Mutagenic index TA100 (S. typhimurium TA100): 1.9
Sterol moiety depletion (%) [4]: 80.4 ± 13.5%
increase in number of revertant colonies TA98 (S. typhimurium TA98): 1.6 fold
decrease in DNA synthesis (BrdU incorporation) (CCD 841 CoN cells [5]; 5 μg/mL, P = 0.028): 10%
decrease in DNA synthesis (BrdU incorporation) (CCD 841 CoN cells [5]; 40 μg/mL): 61%
first dose that significantly inhibited DNA synthesis (CCD 841 CoN cells [5]): 5 µg/mL
